Test system: ATF4 luciferase reporter in HEK293T cells
Assay: ATF4-Luc assay (ATF4 luciferase reporter, tunicamycin-treated HEK293T cells)
Assay type: cell-based, human
Conditions: Homo sapiens, HEK-293T; HEK293T cells carrying the ATF4 luciferase reporter, 1 μg/mL tunicamycin, 7 hours

Structure (SMILES)	EC50 [nM]
Cc1ccc(OCC(=O)NC23CCC(NC(=O)COc4ccc(Cl)c(F)c4)(CC2)C[C@@H]3O)cc1C [Compound 510, 2-(4-chloro-3-fluorophenoxy)-N-{(3S)-4-[2-(3,4-dimethylphenoxy)acetamido]-3-hydroxybicyclo[2.2.2]octan-1-yl}acetamide]	< 10
CC(=O)c1ccc(OCC(=O)NC23CCC(NC(=O)COc4ccc(Cl)c(F)c4)(CC2)C[C@@H]3O)cc1 [Compound 511, 2-(4-acetylphenoxy)-N-{(2S)-4-[2-(4-chloro-3-fluorophenoxy)acetamido]-2-hydroxybicyclo[2.2.2]octan-1-yl}acetamide]	10 to 50
O=C(COc1ccc(Cl)c(F)c1)NC12CCC(NC(=O)COc3nc4ccccc4s3)(CC1)[C@@H](O)C2 [Compound 512, 2-[(1,3-benzothiazol-2-yl)oxy]-N-{(2S)-4-[2-(4-chloro-3-fluorophenoxy)acetamido]-2-hydroxybicyclo[2.2.2]octan-1-yl}acetamide]	> 2000
O=C(COc1ccc(Cl)c(F)c1)NC12CCC(NC(=O)COc3cc(-c4ccccc4)n(-c4ccccc4)n3)(CC1)[C@@H](O)C2 [Compound 513, 2-(4-chloro-3-fluorophenoxy)-N-[(3S)-4-{2-[(1,5-diphenyl-1H-pyrazol-3-yl)oxy]acetamido}-3-hydroxybicyclo[2.2.2]octan-1-yl]acetamide]	> 2000
O=C(COc1ccc(Cl)c(F)c1)NC12CCC(NC(=O)COc3ncnc4sccc34)(CC1)[C@@H](O)C2 [Compound 514, 2-(4-chloro-3-fluorophenoxy)-N-[(3S)-3-hydroxy-4-{2-[(thieno[2,3-d]pyrimidin-4-yl)oxy]acetamido}bicyclo[2.2.2]octan-1-yl]acetamide]	10 to 50
O=C(COc1ccc(Cl)c(F)c1)NC12CCC(NC(=O)COc3noc4ccccc34)(CC1)[C@@H](O)C2 [Compound 515, 2-[(1,2-benzoxazol-3-yl)oxy]-N-{(2S)-4-[2-(4-chloro-3-fluorophenoxy)acetamido]-2-hydroxybicyclo[2.2.2]octan-1-yl}acetamide]	< 10
O=C(COc1ccc(Cl)c(F)c1)NC12CCC(NC(=O)COc3ncn(-c4ccc(Cl)cc4)n3)(CC1)[C@@H](O)C2 [Compound 516, 2-(4-chloro-3-fluorophenoxy)-N-[(3S)-4-(2-{[1-(4-chlorophenyl)-1H-1,2,4-triazol-3-yl]oxy}acetamido)-3-hydroxybicyclo[2.2.2]octan-1-yl]acetamide]	> 2000
O=C(COc1ccc(Cl)c(F)c1)NC12CCC(NC(=O)COc3ccc4ccccc4c3)(CC1)[C@@H](O)C2 [Compound 517, 2-(4-chloro-3-fluorophenoxy)-N-[(3S)-3-hydroxy-4-{2-[(naphthalen-2-yl)oxy]acetamido}bicyclo[2.2.2]octan-1-yl]acetamide]	< 10
O=C(COc1ccc(Cl)c(F)c1)NC12CCC(NC(=O)COc3ccc(Cl)nn3)(CC1)[C@@H](O)C2 [Compound 518, 2-(4-chloro-3-fluorophenoxy)-N-[(3S)-4-{2-[(6-chloropyridazin-3-yl)oxy]acetamido}-3-hydroxybicyclo[2.2.2]octan-1-yl]acetamide]	10 to 50
COC(=O)c1cc(OCC(=O)NC23CCC(NC(=O)COc4ccc(Cl)c(F)c4)(CC2)C[C@@H]3O)no1 [Compound 519, methyl 3-[2-({(2S)-4-[2-(4-chloro-3-fluorophenoxy)acetamido]-2-hydroxybicyclo[2.2.2]octan-1-yl}amino)-2-oxoethoxy]-1,2-oxazole-5-carboxylate]	> 2000
Cc1cc(OCC(=O)NC23CCC(NC(=O)COc4ccc(Cl)c(F)c4)(CC2)C[C@@H]3O)c2ccccc2n1 [Compound 520, 2-(4-chloro-3-fluorophenoxy)-N-[(3S)-3-hydroxy-4-{2-[(2-methylquinolin-4-yl)oxy]acetamido}bicyclo[2.2.2]octan-1-yl]acetamide]	10 to 50
Cc1ccc(OCC(=O)NC23CCC(NC(=O)COc4ccc(Cl)c(F)c4)(CC2)C[C@@H]3O)cc1 [Compound 521, 2-(4-chloro-3-fluorophenoxy)-N-{(3S)-3-hydroxy-4-[2-(4-methylphenoxy)acetamido]bicyclo[2.2.2]octan-1-yl}acetamide]	< 10
CCCS(=O)(=O)c1ccc(OCC(=O)NC23CCC(NC(=O)COc4ccc(Cl)c(F)c4)(CC2)C[C@@H]3O)cc1 [Compound 522, 2-(4-chloro-3-fluorophenoxy)-N-[(3S)-3-hydroxy-4-{2-[4-(propane-1-sulfonyl)phenoxy]acetamido}bicyclo[2.2.2]octan-1-yl]acetamide]	> 2000
O=C(COc1ccc(Cl)c(F)c1)NC12CCC(NC(=O)COc3nc(N4CCCCC4)nc(N4CCCCC4)n3)(CC1)[C@@H](O)C2 [Compound 523, 2-(4-chloro-3-fluorophenoxy)-N-[(3S)-4-(2-{[4,6-di(piperidin-1-yl)-1,3,5-triazin-2-yl]oxy}acetamido)-3-hydroxybicyclo[2.2.2]octan-1-yl]acetamide]	> 2000
CC(=O)c1ccc(OCC(=O)NC23CCC(NC(=O)COc4ccc(Cl)c(F)c4)(CC2)[C@@H](O)C3)cc1 [Compound 524, 2-(4-acetylphenoxy)-N-{(3S)-4-[2-(4-chloro-3-fluorophenoxy)acetamido]-3-hydroxybicyclo[2.2.2]octan-1-yl}acetamide]	10 to 50
Cc1cc(OCC(=O)NC23CCC(NC(=O)COc4ccc(Cl)c(C)c4)(CC2)[C@@H](O)C3)ccc1Cl [Compound 525, N,N′-[(2S)-2-hydroxybicyclo[2.2.2]octane-1,4-diyl]bis[2-(4-chloro-3-methylphenoxy)acetamide]]	< 10

Structure (SMILES)	EC50 [nM]
O=C(COc1ccc(Cl)c(Cl)c1)NC12CCC(NC(=O)COc3ccc(Cl)c(Cl)c3)(CC1)C2 [Compound 526, N,N′-(bicyclo[2.2.1]heptane-1,4-diyl)bis[2-(3,4-dichlorophenoxy)acetamide]]	10 to 50
O=C(COc1ccc(Cl)cc1)NC12CCC(NC(=O)COc3ccc(Cl)cc3)(CC1)C2 [Compound 527, N,N′-(bicyclo[2.2.1]heptane-1,4-diyl)bis[2-(4-chlorophenoxy)acetamide]]	10 to 50
COc1cc(OCC(=O)NC23CCC(NC(=O)COc4ccc(Cl)c(F)c4)(CC2)C[C@@H]3O)ccc1Cl [Compound 528, 2-(4-chloro-3-fluorophenoxy)-N-{(3S)-4-[2-(4-chloro-3-methoxyphenoxy)acetamido]-3-hydroxybicyclo[2.2.2]octan-1-yl}acetamide]	< 10
O=C(COc1ccc(C(F)(F)F)nc1)NC12CCC(NC(=O)COc3ccc(C(F)(F)F)nc3)(CC1)C2 [Compound 530, N,N′-(bicyclo[2.2.1]heptane-1,4-diyl)bis(2-{[6-(trifluoromethyl)pyridin-3-yl]oxy}acetamide)]	500 to 2000
O=C(COc1ccc2c(c1)OC(F)(F)O2)NC12CCC(NC(=O)COc3ccc4c(c3)OC(F)(F)O4)(CC1)C2 [Compound 531, N,N′-(bicyclo[2.2.1]heptane-1,4-diyl)bis{2-[(2,2-difluoro-2H-1,3-benzodioxol-5-yl)oxy]acetamide}]	250 to 500
O=C(COc1ccc(F)cc1)NC12CC(NC(=O)COc3ccc(Cl)c(Cl)c3)(C1)C2 [Compound 532, 2-(3,4-dichlorophenoxy)-N-{3-[2-(4-fluorophenoxy)acetamido]bicyclo[1.1.1]pentan-1-yl}acetamide]	< 10
O=C(COc1ccc(F)c(Cl)c1)NC12CC(NC(=O)COc3ccc(Cl)c(Cl)c3)(C1)C2 [Compound 533, 2-(3-chloro-4-fluorophenoxy)-N-{3-[2-(3,4-dichlorophenoxy)acetamido]bicyclo[1.1.1]pentan-1-yl}acetamide]	< 10
O=C(COc1ccc(Cl)c(F)c1)NC12CC(NC(=O)COc3ccc(F)c(Cl)c3)(C1)C2 [Compound 534, 2-(4-chloro-3-fluorophenoxy)-N-{3-[2-(3-chloro-4-fluorophenoxy)acetamido]bicyclo[1.1.1]pentan-1-yl}acetamide]	< 10
O=C(COc1ccc(Cl)c(F)c1)NC12CCC(NC(=O)COc3ccc(F)c(Cl)c3)(C1)C2 [Compound 535, 2-(3-chloro-4-fluorophenoxy)-N-{4-[2-(4-chloro-3-fluorophenoxy)acetamido]bicyclo[2.1.1]hexan-1-yl}acetamide]	10 to 50
O=C(COc1ccc(C(F)(F)F)cc1)NC12CCC(NC(=O)COc3ccc(C(F)(F)F)cc3)(CC1)[C@@H](O)C2 [Compound 536, N,N′-[(2S)-2-hydroxybicyclo[2.2.2]octane-1,4-diyl]bis{2-[4-(trifluoromethyl)phenoxy]acetamide}]	< 10
O=C(COc1ccc(Cl)c(F)c1)NC12CCC(NC(=O)COc3ccc(C(F)F)cc3)(CC1)[C@@H](O)C2 [Compound 537, 2-(4-chloro-3-fluorophenoxy)-N-[(3S)-4-{2-[4-(difluoromethyl)phenoxy]acetamido}-3-hydroxybicyclo[2.2.2]octan-1-yl]acetamide]	< 10
O=C(COc1ccc(Cl)c(Cl)c1)NC12CCC(NC(=O)COc3ccc(Cl)c(Cl)c3)(CC1)[C@@H](O)C2 [Compound 538, N,N′-[(2S)-2-hydroxybicyclo[2.2.2]octane-1,4-diyl]bis[2-(3,4-dichlorophenoxy)acetamide]]	< 10
O=C(COc1ccc(C(F)F)cc1)NC12CCC(NC(=O)COc3ccc(Cl)c(F)c3)(CC1)[C@@H](O)C2 [Compound 539, 2-(4-chloro-3-fluorophenoxy)-N-[(2S)-4-{2-[4-(difluoromethyl)phenoxy]acetamido}-2-hydroxybicyclo[2.2.2]octan-1-yl]acetamide]	< 10
O=C(COc1ccc(Cl)cc1)NC12CCC(NC(=O)COc3ccc(Cl)cc3)(CC1)[C@@H](O)C2 [Compound 540, N,N′-[(2S)-2-hydroxybicyclo[2.2.2]octane-1,4-diyl]bis[2-(4-chlorophenoxy)acetamide]]	< 10
O=C(COc1ccc(C(F)(F)F)nc1)NC12CCC(NC(=O)COc3ccc(C(F)(F)F)nc3)(CC1)[C@@H](O)C2 [Compound 541, N,N′-[(2S)-2-hydroxybicyclo[2.2.2]octane-1,4-diyl]bis(2-{[6-(trifluoromethyl)pyridin-3-yl]oxy}acetamide)]	10 to 50
